Reference: PubChem BioAssay (NCI)
“And” between values parts separate entries of the source, which are not always exact repeats. Equal entries are not always repeated.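 All cell lines were grown in 96-well plates and treated with compound for 48 hours. Abbreviation: GI50, concentration required for 50% inhibition of growth. TGI: concentration producing complete growth inhibition.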

What follows are compounds tested on MDA-MB-468 breast (assay: inhibition of tumour cell growth, NCI panel, 48 h).
`COc1ccc2c(c1)C(c1ccccc1Cl)=Nc1c(n[nH]c1C)N2` was tested, and the GI50 was > 16.8 µM and the TGI was > 25 µM.
`O=C(Cc1cccc(OC(F)(F)F)c1)Nc1ccc(CCCCc2nnc(NC(=O)Cc3ccccn3)s2)nn1` gave a GI50 of 7.69 µM and a TGI of 58.5 µM.
Work on `COc1ccc2c(c1)C(=O)/C(=C/c1ncc([N+](=O)[O-])n1C)O2` yielded a GI50 of 1.7 µM and a TGI of 4.12 µM.
For `C=C1C(=O)O[C@H]2[C@H]1CC/C(COC(=O)CSCC(=O)OC/C1=C/CC[C@@]3(C)O[C@H]3[C@H]3OC(=O)C(=C)[C@@H]3CC1)=C\CC[C@@]1(C)O[C@@H]21`, the GI50 was 1.42 µM and the TGI was 3.5 µM.
`COc1ccc2nc3cc(Cl)ccc3c(NCCCNCCC(C)O)c2c1` (stereo not drawn) gave a GI50 of 0.313 µM and a TGI of 1.78 µM.
For `O=C(N/N=C/c1ccccc1O)C(=O)Nc1ccc(F)cc1`, the GI50 was 4.41 µM and the TGI was > 100 µM.
`O=C(Nc1ccc(Cl)cc1)c1cc(-c2ccc(Cl)cc2)c2sc(=O)[nH]c2n1` showed a GI50 of 1.73 µM and a TGI of 6.62 µM.
In the case of `CC(=O)O/N=C1/C(c2c(O)[nH]c3cc(Br)ccc23)=Nc2ccccc21`, the GI50 is reported as 1.64 µM and the TGI is reported as 3.22 µM.
Compound `COc1cccc2c1C(=O)c1c(O)c3c(c(O)c1C2=O)C[C@@](O)(C(=O)CO)C[C@@H]3OC1C[C@H](N)[C@H](O)[C@H](C)O1` (stereo partly drawn) has a GI50 of 0.0253 µM and a TGI of 0.123 µM.
`CCOP(=O)(OCC)OC[C@]12CCC(C)(C)C[C@H]1C1=CC[C@@H]3[C@@]4(C)C/C(=C\c5cccnc5)[C@H](OP(=O)(OCC)OCC)C(C)(C)[C@@H]4CC[C@@]3(C)[C@]1(C)CC2` gave a GI50 of 1.12 µM and a TGI of 2.5 µM.
With `CN(C)C(=O)c1cc2cnc(Nc3ccc(-c4csc5c(=O)cc(N6CCOCC6)oc45)cc3)nc2n1C1CCCC1` the GI50 was 0.122 µM and the TGI was 0.397 µM.
Work on `Cc1cc(Cc2cc(C)cc(C(C)(C)C)c2O)c(O)c(C(C)(C)C)c1` yielded a GI50 of 11.4 µM and a TGI of 24.2 µM.
Work on `CC(C)NC(=O)OCc1c(COC(=O)NC(C)C)c(-c2ccc(Cl)cc2)n2c1CCC2` yielded a GI50 of 0.928 µM and a TGI of 2.5 µM.
In the case of `O=C(N/N=C/c1ccc([N+](=O)[O-])cc1)c1ccc2nc(-c3ccc(Cl)cc3)[nH]c2c1`, the GI50 is reported as 1.97 µM and the TGI is reported as 4.79 µM.
In the case of `COc1cc(/C=C2\CN(C)C/C(=C\c3cc(CN4CCCCC4)c(O)c(OC)c3)C2=O)cc(CN2CCCCC2)c1O`, the GI50 is reported as 3.79 µM and the TGI is reported as 14.7 µM.
Compound `O=C(Nc1ccccc1O)c1ccc(Oc2cccc(C(=O)Nc3ccccc3O)c2)cc1` has a GI50 of 2.17 µM and a TGI of 8.16 µM.
In the case of `O=c1[nH]cnc2[nH]ncc12`, the GI50 is reported as 152 µM and the TGI is reported as 2680 µM.
Work on `C/C=C/CC(C)C(O)C1C(=O)NC(CC)C(=O)N(C)CC(=O)N(C)C(CC(C)C)C(=O)NC(C(C)C)C(=O)N(C)C(CC(C)C)C(=O)NC(C)C(=O)NC(C)C(=O)N(C)C(CC(C)C)C(=O)N(C)C(CC(C)C)C(=O)N(C)C(C(C)C)C(=O)N1C` (stereo not drawn) yielded a GI50 of 0.872 µM and a TGI of 6.63 µM.
Compound `COc1ccccc1/C=N\N=C(N/N=C/c1ccccc1OC)N/N=C/c1ccccc1OC` has a GI50 of 3.51 µM and a TGI of 10.7 µM.
For `C=C1C(=O)O[C@H]2[C@H]1CC/C(COC(=O)NCCc1c[nH]c3ccc(OC)cc13)=C\CC[C@@]1(C)O[C@@H]21`, the GI50 was 1.19 µM and the TGI was 2.91 µM.
For `COc1cc(-c2nc3sc4c(c3c(=O)[nH]2)CCCCCC4)cc(OC)c1OC`, the GI50 was 0.676 µM and the TGI was 3.01 µM.
For `COC(=O)[C@]12CC[C@@H](C)[C@H](C)[C@@H]1C1=CC[C@@H]3[C@@]4(C)C=C(O)C(=O)[C@@]5(C)COC(=C54)C[C@@]3(C)[C@]1(C)CC2`, the GI50 was 4.88 µM and the TGI was 19.9 µM.
`CCN1c2ccccc2C(Cl)(c2ccc(N(C)C)cc2)c2ccccc21` was tested, and the GI50 was 3.36 µM and the TGI was 15.5 µM.
In the case of `Cc1cc(Nc2ncnc3ccc(NC4=NC(C)(C)CO4)cc23)ccc1Oc1ccn2ncnc2c1`, the GI50 is reported as 1.78 µM and 2.18 µM and the TGI is reported as 12.7 µM and > 10 µM.
`NC1=NC(c2ccc(Cl)cc2)C2=C(N1)/C(=C/c1ccc(Cl)cc1)CCC2` (stereo not drawn) gave a GI50 of 3.49 µM and a TGI of 13.9 µM.
Compound `CN1CCN(Cc2ccc(NC(=O)c3ccc(C#Cc4c(N)ncc5ccc(F)cc45)cc3)cc2C(F)(F)F)CC1` has a GI50 of 0.998 µM and a TGI of 1.97 µM.
In the case of `NS(=O)(=O)c1cccc(N=Cc2c(O)[nH]c3ccccc23)c1`, the GI50 is reported as > 25 µM and the TGI is reported as > 25 µM.
`c1cn2cc(-c3ccc4cn[nH]c4c3)nc(Nc3ccc(N4CCOCC4)cc3)c2n1` showed a GI50 of 8.59 µM and a TGI of 32.4 µM.
With `O=C(CCl)N1c2ccccc2Sc2ccc3ccccc3c21` the GI50 was 0.351 µM and the TGI was 1.46 µM.
`COc1ccc(Cl)cc1NC(=O)C(Br)C(Br)C(=O)O` (stereo not drawn) gave a GI50 of 0.567 µM and a TGI of 2.27 µM.
In the case of `COc1ccc(C(=O)c2cc3c(OC)c(OC)c(OC)cc3[nH]2)cc1`, the GI50 is reported as 2.64 µM and the TGI is reported as > 100 µM.
With `Cn1cc(-c2cnc3ccc4ccc(CS(=O)(=O)NCc5ccccn5)cc4c(=O)c3c2)cn1` the GI50 was 10.9 µM and the TGI was 29 µM.
Work on `O=Nc1ccc2ccccc2c1O` yielded a GI50 of 13.4 µM and a TGI of 34.9 µM.
Work on `Cc1cc(C)c(O)c(CN(C)Cc2cc(Cl)cc(Cl)c2O)c1` yielded a GI50 of 2.83 µM and a TGI of 11.8 µM.
`N#CCc1ncc(-c2ccc(C(F)(F)F)cc2)c(NC2CCCCCC2)n1` was tested, and the GI50 was > 10 µM and the TGI was > 10 µM.
For `CSc1ccc2c3c(n(C[C@H](O)CO)c(=O)c2c1)-c1ccccc1C3=O`, the GI50 was 1.87 µM and the TGI was 5.78 µM.
Compound `C#CC(F)(F)[C@]1(O)CC[C@H]2[C@@H]3CCC4=CC(=O)CCC4=C3[C@@H](c3ccc(C(C)=O)cc3)C[C@@]21C` has a GI50 of 7.69 µM and a TGI of 34.1 µM.
With `Cc1c(C)[n+](=O)c(C)c(C)n1[O-]` the GI50 was > 100 µM and the TGI was > 100 µM.
With `C=CC(=O)N[C@H]1CCOC[C@H]1Nc1ncc2cc(-c3c(Cl)c(OC)cc(OC)c3Cl)ccc2n1` the GI50 was 9.16 µM and the TGI was 44.7 µM.
For `O=c1cc(-c2ccccc2)[nH]n1-c1nc2ccccc2[nH]1`, the GI50 was 4.3 µM and the TGI was 45.9 µM.
Work on `CCCCCCCCCCCCSC(=N)N` yielded a GI50 of 6.21 µM and a TGI of 20.5 µM.
`O=C(O)c1cc2cc(OCc3ccccc3)c(OCc3ccccc3)cc2[nH]1` was tested, and the GI50 was 17.9 µM and the TGI was 36.7 µM.
With `Cc1c2c[n+](C(C)C)ccc2c(C)c2c1[nH]c1ccccc12` the GI50 was 0.312 µM and the TGI was 1.97 µM.
`O=C(Nc1ccc(Cl)c(C(F)(F)F)c1)Nc1ccc2c(ccn2C(=O)c2cccc(F)c2)c1` showed a GI50 of 1.83 µM and a TGI of 4.96 µM.
